Here are results for one compound from patent US20030133923A1, “Composition for preventing the formation and enhancing the breakdown of bezoars in animals and humans” (priority 2001, published 2003).

A short description of this assay: In vitro breakdown of a feline hairball under simulated stomach conditions (pH 3.0, 100° F., 24 hours). The note with it: for % enhanced break down: versus 0% Tween-80; for Hair clump wt: hairball 1.0-1.1 g. As to the method:
Tween 80 (lot#1373A, Uniqema, Wilmington, Del.) was dissolved in 150 ml acidified water (pH 3.0) at a concentration of 0%, 5%, 10%, 15%, and 20%. A feline hairball (1.0-1.1 g) was then added to each of the five solutions. The mixtures were incubated at 100° F. for 24 hours. After incubation, hair lumps (defined as hair not floating free in the liquid) was removed and the liquid was strained through cheesecloth. Free hair and hair lumps were then dried and weighed.

As for `CCCCCCCC/C=C\CCCCCCCC(=O)OCCOCC(OCCO)C1OCC(OCCO)C1OCCO` (centres unmarked) [Tween-80], the Free hair wt is listed as 0.1606 g (5% Tween-80, pH 3.0, 100° F.); 0.2576 g (10% Tween-80, pH 3.0, 100° F.); 0.1980 g (15% Tween-80, pH 3.0, 100° F.); 0.2480 g (20% Tween-80, pH 3.0, 100° F.). Also, the “Free hair wt (% total wt)” value is 20.38% (5% Tween-80, pH 3.0, 100° F.); 53.78% (10% Tween-80, pH 3.0, 100° F.); 47.86% (15% Tween-80, pH 3.0, 100° F.); 51.99% (20% Tween-80, pH 3.0, 100° F.). Moreover, the “Hair clump wt (% total wt)” value (5% Tween-80, pH 3.0, 100° F.) is reported as 79.62%; the “Hair clump wt (% total wt)” value (10% Tween-80, pH 3.0, 100° F.) is given as 46.22%; the “Hair clump wt (% total wt)” value (15% Tween-80, pH 3.0, 100° F.) is reported as 52.14%; the “Hair clump wt (% total wt)” value (20% Tween-80, pH 3.0, 100° F.) is given as 48.00%. The “% enhanced break down” value runs as follows: (5% Tween-80, pH 3.0, 100° F.) 5%; (10% Tween-80, pH 3.0, 100° F.) 35%; (15% Tween-80, pH 3.0, 100° F.) 35%; (20% Tween-80, pH 3.0, 100° F.) 35%. Further, the Hair clump wt is, setting by setting: (5% Tween-80 in 150 ml acidified water pH 3.0, 100° F.) 0.6273 g; (10% Tween-80 in 150 ml acidified water pH 3.0, 100° F.) 0.2214 g; (15% Tween-80 in 150 ml acidified water pH 3.0, 100° F.) 0.2157 g; (20% Tween-80 in 150 ml acidified water pH 3.0, 100° F.) 0.2290 g.
